{"source": "patent US8987262B2", "about": "“Use of a beta blocker for the manufacture of a medicament for the treatment of hemangiomas” (Universite de Bordeaux, priority 2007, dated 2015)", "key": {"[1]": {"system": "infantile capillary hemangiomas (IH)", "assay": "Treatment of infants with infantile hemangioma (case reports, Examples 1-3)"}, "cleaved caspase-3 and 8": {"system": "cleaved caspase-3 and 8", "assay": "Immuno-histochemical analysis of IH biopsy with anti-cleaved caspase-3 and 8 antibodies", "parameters": "species or system human", "conditions": "Example 2, arm biopsy at 3 months of age", "protocol": "Prednisolone treatment was progressively tapered down while the IH continued to improve. At 3 months of age a biopsy sample was obtained on the arm, showing a typical IH.\nReintroduction of propranolol treatment at 2 mg/kg/day was successful after only 24 hours."}, "subglottic hemangioma": {"system": "subglottic hemangioma", "conditions": "cited from earlier work"}, "infantile hemangiomas": {"system": "infantile hemangiomas", "conditions": "cited from earlier work"}, "HIF-1alpha and VEGF": {"system": "HIF-1alpha and VEGF", "conditions": "pressure-overloaded rat heart; cited from earlier work"}, "head and neck IH": {"system": "head and neck IH", "conditions": "oral suspension up to 4 mg/kg/day, 24 weeks; cited from earlier work"}, "IH": {"system": "IH", "conditions": "in vivo; cited from earlier work"}, "[2]": {"conditions": "Case 4, 3 mg/kg/day, stenosis at referral 90%"}, "[3]": {"conditions": "Case 1, 8 mg/kg/day, stenosis at referral 90%"}, "[4]": {"conditions": "Case 2, 8 mg/kg/day, stenosis at referral 70%"}, "[5]": {"conditions": "Case 3, 8 mg/kg/day, stenosis at referral 90%"}}, "note": "Like-named read-outs stand apart in the source and are kept apart here."}
{"smiles": "CC(C)NCC(O)COc1cccc2ccccc12", "note": "(racemic) [propranolol]", "values": [{"measurement": "change of the hemangioma after onset of treatment", "setting": "[1]; Example 1, baby, nasal pyramid IH, 3 mg/kg/day, the day after onset", "value": "changed in color from intense red to purple, and softened"}, {"measurement": "aspect of the IH", "setting": "[1]; Example 1, still under propranolol", "value": "completely flat"}, {"measurement": "parotidal and axillary subcutaneous hemangiomatous components", "setting": "[1]; Example 2, 2 mg/kg/d", "value": "not palpable"}, {"measurement": "time to softening of the lesions after onset", "setting": "[1]; Example 2, 2 mg/kg/day", "value": 12, "unit": "h"}, {"measurement": "time to success after reintroduction of treatment", "setting": "[1]; Example 2, 2 mg/kg/day", "value": 24, "unit": "h"}, {"measurement": "change in size of hemangioma", "setting": "[1]; Example 2, 2 mg/kg/day, seven days after onset", "value": "dramatic reduction in size of the subcutaneous component of the hemangioma"}, {"measurement": "effect of treatment interruption", "setting": "[1]; Example 2, 3-day interruption, superior eyelid and parotidal areas", "value": "mild increase in size of the hemangioma"}, {"measurement": "outcome after treatment stopped", "setting": "[1]; Example 2, stopped", "value": "without any re-growth of the IH"}, {"measurement": "hemodynamic modifications", "setting": "[1]; Example 3, 7 days after onset, 2 mg/kg/day", "value": "without any hemodynamic modifications"}, {"measurement": "IH thickness (ultrasonography)", "setting": "[1]; Example 3, 7 days after onset, versus 12 mm before", "value": 6, "unit": "mm"}, {"measurement": "IH diameter (ultrasonography)", "setting": "[1]; Example 3, 7 days after onset, versus 32 mm before", "value": 21, "unit": "mm"}, {"measurement": "time to flattening of the lesion", "setting": "[1]; Example 3, periocular IH, 2 mg/kg/day", "value": 12, "unit": "h"}, {"measurement": "outcome after treatment stopped", "setting": "[1]; Example 3, stopped after one month", "value": "novel increase in size of the IH"}, {"measurement": "outcome after treatment stopped", "setting": "[1]; Example 3, stopped at 8 months", "value": "without any rebound of the hemangioma"}, {"measurement": "aspect of the IH", "setting": "[1]; Example 3, treatment resumed", "value": "flat and had faded in color"}, {"measurement": "treatment failure", "setting": "[1]; all treated children (Examples 1-3 and seven other)", "value": "No treatment failure"}, {"measurement": "cleaved caspase-3 and 8 immunostaining (proapoptotic role)", "setting": "cleaved caspase-3 and 8", "value": "did not demonstrate positive immunostaining"}, {"measurement": "Beta-blocker efficiency", "setting": "subglottic hemangioma; [2]", "value": "success"}, {"measurement": "Laryngeal stenosis during beta-blocker treatment (%)", "setting": "subglottic hemangioma; [2]", "value": 5, "unit": "%"}]}
{"smiles": "CCCC(=O)Nc1ccc(OCC(O)CNC(C)C)c(C(C)=O)c1", "note": "(centres unmarked) [Acebutolol]", "values": [{"measurement": "overall result of study", "setting": "subglottic hemangioma; 8 mg/kg/day", "value": "able to treat hemangiomas"}, {"measurement": "Beta-blocker efficiency", "setting": "subglottic hemangioma; [3]", "value": "Failure"}, {"measurement": "Laryngeal stenosis during beta-blocker treatment (%)", "setting": "subglottic hemangioma; [3]", "value": 90, "unit": "%"}, {"measurement": "Beta-blocker efficiency", "setting": "subglottic hemangioma; [4]", "value": "success"}, {"measurement": "Laryngeal stenosis during beta-blocker treatment (%)", "setting": "subglottic hemangioma; [4]", "value": 10, "unit": "%"}, {"measurement": "Beta-blocker efficiency", "setting": "subglottic hemangioma; [5]", "value": "success"}, {"measurement": "Laryngeal stenosis during beta-blocker treatment (%)", "setting": "subglottic hemangioma; [5]", "value": 5, "unit": "%"}]}
{"smiles": "CC(C)(C)NC[C@H](O)COc1nsnc1N1CCOCC1", "note": "[Timolol, timolol]", "values": [{"measurement": "Mean VAS ± Standard deviation", "setting": "infantile hemangiomas; Age at treatment inititation (mos) <6", "value": "45 ± 27"}, {"measurement": "Mean VAS ± Standard deviation", "setting": "infantile hemangiomas; Age at treatment inititation (mos) >6", "value": "47 ± 30"}, {"measurement": "Mean VAS ± Standard deviation", "setting": "infantile hemangiomas; Depth of hemangioma: Deep", "value": "32 ± 28"}, {"measurement": "Mean VAS ± Standard deviation", "setting": "infantile hemangiomas; Depth of hemangioma: Superficial", "value": "53 ± 29"}, {"measurement": "Mean VAS ± Standard deviation", "setting": "infantile hemangiomas; Location: Facial", "value": "45 ± 29"}, {"measurement": "Mean VAS ± Standard deviation", "setting": "infantile hemangiomas; Location: Nonfacial", "value": "43 ± 32"}, {"measurement": "Mean VAS ± Standard deviation", "setting": "infantile hemangiomas; Timolol concentration (%) 0.1", "value": "24 ± 29"}, {"measurement": "Mean VAS ± Standard deviation", "setting": "infantile hemangiomas; Timolol concentration (%) 0.5", "value": "48 ± 28"}, {"measurement": "Mean VAS ± Standard deviation", "setting": "infantile hemangiomas; Treatment duration (mos) <3", "value": "38 ± 28"}, {"measurement": "Mean VAS ± Standard deviation", "setting": "infantile hemangiomas; Treatment duration (mos) >3", "value": "52 ± 30"}, {"measurement": "overall result of study", "setting": "infantile hemangiomas; timolol maleate 0.1% or 0.5% gel-forming solution", "value": "able to treat hemangiomas"}]}
{"smiles": "C[C@H]1C[C@H]2[C@@H]3CCC4=CC(=O)C=C[C@]4(C)[C@@]3(F)[C@@H](O)C[C@]2(C)[C@@]1(O)C(=O)CO", "note": "[betamethasone]", "values": [{"measurement": "cardiac sonography finding", "setting": "[1]; Example 1, under systemic steroid", "value": "obstructive hypertrophic myocardiopathy"}]}
{"smiles": "COc1ccccc1OCCNCC(O)COc1cccc2[nH]c3ccccc3c12", "note": "(centres unmarked) [cardivedilol]", "values": [{"measurement": "effect on HIF-1alpha and VEGF protein and mRNA", "setting": "HIF-1alpha and VEGF", "value": "reverses both protein and mRNA of HIF-1alpha and VEGF to the baseline values"}]}
{"smiles": "CC(C)(C)NCC(O)COc1cccc2c1CC(O)C(O)C2", "note": "(centres unmarked) [nadolol]", "values": [{"measurement": "overall result of study", "setting": "head and neck IH", "value": "able to treat efficiently hemangiomas"}]}
{"smiles": "C[C@]12C=CC(=O)C=C1CC[C@@H]1[C@@H]2[C@@H](O)C[C@@]2(C)[C@H]1CC[C@]2(O)C(=O)CO", "note": "[prednisolone]", "values": [{"measurement": "effect on hemangioma", "setting": "[1]; Example 1, one-month treatment at 3 mg/kg/day", "value": "stabilized, but nasal necrosis progressed"}, {"measurement": "effect on IH", "setting": "[1]; Example 2, 3 mg/kg/day 2 weeks then 5 mg/kg/day 2 weeks", "value": "continued to enlarge"}, {"measurement": "CS efficiency", "setting": "subglottic hemangioma; Case 1, before beta-blocker treatment, (2 mg/kg/day)", "value": "CS-persistant"}, {"measurement": "CS efficiency", "setting": "subglottic hemangioma; Case 2, before beta-blocker treatment, (1 mg/kg/day)", "value": "CS-dependent"}, {"measurement": "CS efficiency", "setting": "subglottic hemangioma; Case 3, before beta-blocker treatment, (1 mg/kg/day)", "value": "CS-dependent"}, {"measurement": "CS efficiency", "setting": "subglottic hemangioma; Case 4, before beta-blocker treatment, (1.5 mg/kg/day)", "value": "CS-dependent"}]}
{"smiles": "CC[C@]1(O)C[C@H]2CN(CCc3c([nH]c4ccccc34)[C@@](C(=O)OC)(c3cc4c(cc3OC)N(C=O)[C@H]3[C@@](O)(C(=O)OC)[C@H](OC(C)=O)[C@]5(CC)C=CCN6CC[C@]43[C@@H]65)C2)C1", "note": "[vincristine]", "values": [{"measurement": "well-known downsides", "setting": "IH", "value": "peripheral neuropathy, constipation, and hematologic toxicity"}]}
